What was measured:
[1] = tested on: c-MycCBiotin (DNA, i motif) CCTTCCCCACCCTCCCCACCCTCCCCA; test: SPR, single concentration; conditions: Na+ (100 mM NaCl, 10 mM sodium cacodylate); pH 5.5, 0.05% Tween-20, 5% DMSO; 50 μM compound
[2] = tested on: hTeloCBiotin (DNA, i motif) TAACCCTAACCCTAACCCTAACCC; test: SPR, single concentration; conditions: Na+ (100 mM NaCl, 10 mM sodium cacodylate), pH 5.5, 0.05% Tween-20, 5% DMSO, 50 μM compound; for binding: NB
[3] = tested on: DSbiotin (DNA, duplex) GGCATAGTGCGTGGGCGTTAGC/GCTAACGCCCACGCACTATGCC; test: SPR, single concentration; conditions: Na+ (100 mM NaCl, 10 mM sodium cacodylate); pH 5.5, 0.05% Tween-20, 5% DMSO; 50 μM compound
[4] = tested on: hTeloC (DNA, i motif) TAACCCTAACCCTAACCCTAACCC; test: fluorescent intercalator displacement; conditions: Na+ (10 mM sodium cacodylate); pH 5.5; thiazole orange 2 μM displaced; 1 μM DNA
[5] = tested on: hTeloCBiotin (DNA, i motif) TAACCCTAACCCTAACCCTAACCC; test: SPR; conditions: Na+ (100 mM NaCl, 10 mM sodium cacodylate); pH 5.5, 0.05% Tween-20, 5% DMSO
[6] = tested on: c-MycCBiotin (DNA, i motif) CCTTCCCCACCCTCCCCACCCTCCCCA; test: SPR; conditions: Na+ (100 mM NaCl, 10 mM sodium cacodylate); pH 5.5, 0.05% Tween-20, 5% DMSO
[7] = tested on: DSbiotin (DNA, duplex) GGCATAGTGCGTGGGCGTTAGC/GCTAACGCCCACGCACTATGCC; test: SPR; conditions: Na+ (100 mM NaCl, 10 mM sodium cacodylate); pH 5.5, 0.05% Tween-20, 5% DMSO

%Rmax [1] [%]	binding [2]	%Rmax [3] [%]	%Rmax [2] [%]	DC50 [4] [µM]	Kd [5] [µM]	Kd [6] [µM]	Kd [7] [µM]	Compound
64	no	123	–	–	–	–	–	CC1=NCCc2c1[nH]c1cc(O)ccc21
36	–	69	29	–	–	–	–	CN(C)c1ccc(O)c2c1C[C@H]1C[C@H]3[C@H](N(C)C)C(O)=C(C(N)=O)C(=O)[C@@]3(O)C(O)=C1C2=O
71	–	137	38	–	–	–	–	Nc1ccc(N=Nc2ccccc2)c(N)n1
420	–	811	116	2.4	–	–	–	CCN(CC)CCOc1ccc2c(c1)C(=O)c1cc(OCCN(CC)CC)ccc1-2
49	no	95	–	–	–	–	–	O=C1c2ccc(O)c(O)c2C(=O)c2c(O)ccc(O)c21
2534	–	4894	2125	1.8	–	–	–	O=C1c2c(O)ccc(O)c2C(=O)c2c(NCCNCCO)ccc(NCCNCCO)c21
121	–	233	325	2.9	17 ± 2.0	13 ± 1.8	18 ± 1.1	NC[C@H]1O[C@H](O[C@H]2[C@H](O)[C@@H](O[C@H]3O[C@H](CO)[C@@H](O)[C@H](N)[C@H]3O)[C@H](N)C[C@@H]2N)[C@H](N)C[C@@H]1O
31	–	59	15	–	–	–	–	CCN(CC)Cc1cc(Nc2ccnc3cc(Cl)ccc23)ccc1O

From publication PMC5708337 (2017)
